Laboratory results reported in paper PMC6199744, “Development of Chemical Proteomics for the Folateome and Analysis of the Kinetoplastid Folateome” (ACS Infectious Diseases, 2018).
Read-outs that look alike come from different tables or passages of the source.

Legend:
Format in all cases: binding
[1] = target: T1, HeLa cell extract proteins (Homo sapiens, UniProt P13639)
T1 construct: endogenous in cells; host or cells: HeLa cell extract

[2] = target: T2, HeLa cell extract proteins (Homo sapiens, UniProt Q96JN8)
T2 construct: endogenous in cells; host or cells: HeLa cell extract

[3] = target: T3, HeLa cell extract proteins (Homo sapiens, UniProt Q96EY1)
T3 construct: endogenous in cells; host or cells: HeLa cell extract
T3 sequence (Q96EY1 1-480): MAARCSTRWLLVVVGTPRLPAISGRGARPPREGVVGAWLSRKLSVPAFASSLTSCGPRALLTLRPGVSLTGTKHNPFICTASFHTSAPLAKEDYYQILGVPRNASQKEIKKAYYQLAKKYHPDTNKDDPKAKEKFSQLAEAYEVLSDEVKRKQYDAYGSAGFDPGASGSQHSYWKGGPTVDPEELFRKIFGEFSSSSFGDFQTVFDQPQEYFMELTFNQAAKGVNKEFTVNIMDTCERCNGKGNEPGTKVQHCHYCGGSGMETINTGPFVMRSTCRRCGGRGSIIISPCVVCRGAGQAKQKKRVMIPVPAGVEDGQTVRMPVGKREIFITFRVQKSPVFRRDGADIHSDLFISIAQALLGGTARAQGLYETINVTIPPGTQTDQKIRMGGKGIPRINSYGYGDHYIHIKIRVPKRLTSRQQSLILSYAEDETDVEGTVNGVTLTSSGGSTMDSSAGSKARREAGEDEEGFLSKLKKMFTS

[4] = target: T4, HeLa cell extract proteins (Homo sapiens, UniProt Q9UHI6)
T4 construct: endogenous in cells; host or cells: HeLa cell extract
T4 sequence (Q9UHI6 1-824): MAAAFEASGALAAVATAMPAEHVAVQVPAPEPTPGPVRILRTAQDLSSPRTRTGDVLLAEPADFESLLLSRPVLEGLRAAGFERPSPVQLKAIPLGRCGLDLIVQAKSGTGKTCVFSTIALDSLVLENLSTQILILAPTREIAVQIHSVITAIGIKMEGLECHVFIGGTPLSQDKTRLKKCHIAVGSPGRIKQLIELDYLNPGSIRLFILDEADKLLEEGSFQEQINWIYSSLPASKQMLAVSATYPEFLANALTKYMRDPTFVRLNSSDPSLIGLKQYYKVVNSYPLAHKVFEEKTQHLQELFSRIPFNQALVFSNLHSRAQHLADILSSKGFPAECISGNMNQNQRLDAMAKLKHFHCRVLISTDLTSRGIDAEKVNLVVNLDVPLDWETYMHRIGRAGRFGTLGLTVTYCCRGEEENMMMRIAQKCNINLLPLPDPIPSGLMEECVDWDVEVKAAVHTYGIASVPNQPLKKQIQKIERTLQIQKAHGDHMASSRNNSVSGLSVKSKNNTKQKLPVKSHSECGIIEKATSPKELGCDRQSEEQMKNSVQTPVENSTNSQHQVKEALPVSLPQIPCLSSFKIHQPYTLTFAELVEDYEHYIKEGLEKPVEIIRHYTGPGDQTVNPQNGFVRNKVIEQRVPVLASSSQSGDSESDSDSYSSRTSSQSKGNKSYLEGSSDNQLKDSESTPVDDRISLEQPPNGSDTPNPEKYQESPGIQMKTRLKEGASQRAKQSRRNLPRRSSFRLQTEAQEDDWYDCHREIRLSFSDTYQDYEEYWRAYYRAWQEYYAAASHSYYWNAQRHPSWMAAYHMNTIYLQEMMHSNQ

[5] = target: T5, HeLa cell extract proteins (Homo sapiens, UniProt Q9H857)
T5 construct: endogenous in cells; host or cells: HeLa cell extract
T5 sequence (Q9H857 1-520): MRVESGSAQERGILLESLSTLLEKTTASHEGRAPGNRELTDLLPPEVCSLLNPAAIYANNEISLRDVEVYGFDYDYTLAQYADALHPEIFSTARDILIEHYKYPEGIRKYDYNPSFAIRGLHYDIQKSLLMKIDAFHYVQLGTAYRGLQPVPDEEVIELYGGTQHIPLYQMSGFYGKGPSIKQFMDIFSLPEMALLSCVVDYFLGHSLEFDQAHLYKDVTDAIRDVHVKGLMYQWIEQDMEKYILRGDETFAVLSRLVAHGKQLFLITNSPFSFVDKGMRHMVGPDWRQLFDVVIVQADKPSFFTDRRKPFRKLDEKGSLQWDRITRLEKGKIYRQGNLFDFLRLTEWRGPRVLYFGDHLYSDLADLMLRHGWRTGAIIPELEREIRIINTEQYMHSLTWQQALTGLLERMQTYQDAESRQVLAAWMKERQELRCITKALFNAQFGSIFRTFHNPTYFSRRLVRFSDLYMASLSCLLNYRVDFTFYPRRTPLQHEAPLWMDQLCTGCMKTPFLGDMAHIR

[6] = target: T6, HeLa cell extract proteins (Homo sapiens, UniProt Q9H0U4)
T6 construct: endogenous in cells; host or cells: HeLa cell extract

[7] = target: T7, HeLa cell extract proteins (Homo sapiens, UniProt Q96EN8)
T7 construct: endogenous in cells; host or cells: HeLa cell extract
T7 sequence (Q96EN8 1-888): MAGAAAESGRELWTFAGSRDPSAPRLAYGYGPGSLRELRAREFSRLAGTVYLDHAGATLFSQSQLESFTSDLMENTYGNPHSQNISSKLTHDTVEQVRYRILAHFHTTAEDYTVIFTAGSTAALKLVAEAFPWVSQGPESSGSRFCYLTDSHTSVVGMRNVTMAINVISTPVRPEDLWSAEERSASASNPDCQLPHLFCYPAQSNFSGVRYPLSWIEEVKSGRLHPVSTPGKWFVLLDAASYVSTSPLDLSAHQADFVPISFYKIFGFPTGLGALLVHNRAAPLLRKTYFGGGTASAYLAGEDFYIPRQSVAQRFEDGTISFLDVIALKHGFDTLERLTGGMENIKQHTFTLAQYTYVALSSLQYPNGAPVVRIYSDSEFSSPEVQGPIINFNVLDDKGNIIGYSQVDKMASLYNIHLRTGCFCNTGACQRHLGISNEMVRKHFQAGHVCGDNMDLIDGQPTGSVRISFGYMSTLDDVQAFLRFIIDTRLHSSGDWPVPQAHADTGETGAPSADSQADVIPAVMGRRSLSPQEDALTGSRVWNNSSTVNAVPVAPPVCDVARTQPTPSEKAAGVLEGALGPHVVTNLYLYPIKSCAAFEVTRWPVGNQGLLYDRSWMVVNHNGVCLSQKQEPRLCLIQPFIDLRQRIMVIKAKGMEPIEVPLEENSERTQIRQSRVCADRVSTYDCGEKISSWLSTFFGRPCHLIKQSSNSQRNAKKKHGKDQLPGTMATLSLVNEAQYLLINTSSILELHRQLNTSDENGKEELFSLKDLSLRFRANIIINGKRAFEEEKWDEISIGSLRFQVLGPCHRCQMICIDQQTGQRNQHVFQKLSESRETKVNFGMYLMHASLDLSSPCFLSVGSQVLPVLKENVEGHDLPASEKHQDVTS

[8] = HeLa, protein EEF2 (ELONGATION FACTOR 2.)

T2 sequence (Q96JN8 whole entry): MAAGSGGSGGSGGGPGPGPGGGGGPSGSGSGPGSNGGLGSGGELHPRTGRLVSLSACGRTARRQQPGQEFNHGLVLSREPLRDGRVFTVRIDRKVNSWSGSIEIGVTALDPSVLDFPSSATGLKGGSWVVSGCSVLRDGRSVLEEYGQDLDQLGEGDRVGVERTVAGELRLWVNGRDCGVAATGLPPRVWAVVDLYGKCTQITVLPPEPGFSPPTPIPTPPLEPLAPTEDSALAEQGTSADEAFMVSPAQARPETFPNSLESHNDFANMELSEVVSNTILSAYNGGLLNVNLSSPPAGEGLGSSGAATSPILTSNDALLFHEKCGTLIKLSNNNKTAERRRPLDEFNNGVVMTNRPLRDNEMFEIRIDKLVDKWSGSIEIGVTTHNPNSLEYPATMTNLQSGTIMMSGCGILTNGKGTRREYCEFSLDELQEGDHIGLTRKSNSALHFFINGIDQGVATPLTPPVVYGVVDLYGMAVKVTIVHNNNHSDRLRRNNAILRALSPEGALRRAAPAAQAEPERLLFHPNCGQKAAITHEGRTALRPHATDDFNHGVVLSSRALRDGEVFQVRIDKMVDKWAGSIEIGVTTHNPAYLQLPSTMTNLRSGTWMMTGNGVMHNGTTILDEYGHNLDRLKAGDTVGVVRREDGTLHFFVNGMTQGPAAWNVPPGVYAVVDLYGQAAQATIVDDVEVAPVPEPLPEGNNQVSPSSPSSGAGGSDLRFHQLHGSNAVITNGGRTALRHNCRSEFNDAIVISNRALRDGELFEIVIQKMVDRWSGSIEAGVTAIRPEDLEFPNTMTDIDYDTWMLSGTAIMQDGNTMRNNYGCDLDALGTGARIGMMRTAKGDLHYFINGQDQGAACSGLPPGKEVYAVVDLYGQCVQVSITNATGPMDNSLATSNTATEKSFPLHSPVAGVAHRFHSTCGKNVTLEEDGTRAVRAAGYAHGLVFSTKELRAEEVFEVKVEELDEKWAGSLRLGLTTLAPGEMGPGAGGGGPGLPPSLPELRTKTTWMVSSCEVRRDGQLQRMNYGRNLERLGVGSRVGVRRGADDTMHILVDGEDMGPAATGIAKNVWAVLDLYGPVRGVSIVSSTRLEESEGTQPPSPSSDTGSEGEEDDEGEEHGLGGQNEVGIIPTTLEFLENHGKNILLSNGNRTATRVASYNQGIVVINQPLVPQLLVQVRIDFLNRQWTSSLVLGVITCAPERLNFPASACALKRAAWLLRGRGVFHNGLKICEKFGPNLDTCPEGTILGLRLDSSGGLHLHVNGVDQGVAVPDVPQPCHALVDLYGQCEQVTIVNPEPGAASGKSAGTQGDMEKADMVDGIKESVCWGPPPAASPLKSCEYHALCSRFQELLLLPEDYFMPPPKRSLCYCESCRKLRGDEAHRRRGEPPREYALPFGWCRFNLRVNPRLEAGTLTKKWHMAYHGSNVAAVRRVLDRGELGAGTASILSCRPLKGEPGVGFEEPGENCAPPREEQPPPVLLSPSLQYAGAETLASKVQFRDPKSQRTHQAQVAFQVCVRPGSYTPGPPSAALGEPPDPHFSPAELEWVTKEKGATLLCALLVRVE
T6 sequence (Q9H0U4 whole entry): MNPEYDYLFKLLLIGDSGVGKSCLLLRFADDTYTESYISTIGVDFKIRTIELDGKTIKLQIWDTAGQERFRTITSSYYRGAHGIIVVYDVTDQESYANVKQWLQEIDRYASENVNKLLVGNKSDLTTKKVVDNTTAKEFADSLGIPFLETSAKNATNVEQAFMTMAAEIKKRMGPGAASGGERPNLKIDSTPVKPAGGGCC

Nc1nc2cccc(-c3ccccc3)c2n1Cc1ccc(Cl)c(Cl)c1 [compound 3]
fold changes relative to vehicle control ([1]; HeLa, protein EEF2 ([…] 2.)): 0.97 fold | fold changes relative to vehicle control ([2]; protein KIAA1787, HeLa): 1.09 | fold changes relative to vehicle control ([3]; captured protein DNAJA3, HeLa): 1.05 | fold changes relative to vehicle control ([4]; captured protein DDX20, HeLa): 0.92 | fold changes relative to vehicle control ([5]; protein NT5DC2, HeLa): 1 | fold changes relative to vehicle control ([6]; protein RAB1B, HeLa): 1.09 | fold changes relative to vehicle control ([7]; HeLa, protein MOCOS): 0.96

Nc1nc2[nH]cc(CCc3ccc(C(=O)N[C@@H](CCC(=O)O)C(=O)O)cc3)c2c(=O)[nH]1 [PTX, pemetrexed]
fold changes relative to vehicle control [1]: 1.2 | fold changes relative to vehicle control [2]: 1.07 | fold changes relative to vehicle control [3]: 0.84 | fold changes relative to vehicle control [4]: 0.97 | fold changes relative to vehicle control [5]: 0.91 | fold changes relative to vehicle control [6]: 0.93 | fold changes relative to vehicle control [7]: 1.01

Nc1nc2c(c(=O)[nH]1)N(C=O)C(CNc1ccc(C(=O)N[C@@H](CCC(=O)O)C(=O)O)cc1)CN2 (stereo partly shown) [LEU, leucovorin]
fold changes relative to vehicle control ([1]; HeLa, protein EEF2): 1.06 | fold changes relative to vehicle control ([2]; HeLa, protein KIAA1787): 1.16 | fold changes relative to vehicle control ([3]; protein DNAJA3, HeLa): 0.8 | fold changes relative to vehicle control ([4]; HeLa, protein DDX20): 0.93 | fold changes relative to vehicle control ([5]; HeLa, captured protein NT5DC2): 0.94 | fold changes relative to vehicle control ([6]; HeLa, protein RAB1B): 0.93 | fold changes relative to vehicle control ([7]; HeLa, protein MOCOS): 1.07

CCCCCCOc1cccc(Cc2cnc(N)nc2N)c1 [compound 2]
fold changes relative to vehicle control [1, 8]: 2.22 fold | fold changes relative to vehicle control ([2]; protein KIAA1787, HeLa): 0.98 | fold changes relative to vehicle control ([3]; captured protein DNAJA3, HeLa): 1.16 | fold changes relative to vehicle control ([4]; captured protein DDX20, HeLa): 1 | fold changes relative to vehicle control ([5]; protein NT5DC2, HeLa): 0.91 | fold changes relative to vehicle control ([6]; protein RAB1B, HeLa): 1.41 | fold changes relative to vehicle control ([7]; HeLa, protein MOCOS): 1.11

NCCOCCOCC(=O)Nc1nc2ncc(CNc3ccc(C(=O)NC(CCC(=O)O)C(=O)O)cc3)nc2c(=O)[nH]1 (stereo not shown) [compound 6]
fold changes relative to vehicle control ([1]; HeLa, protein EEF2): 1.35 | fold changes relative to vehicle control ([2]; HeLa, protein KIAA1787): 1.11 | fold changes relative to vehicle control ([3]; protein DNAJA3, HeLa): 1.2 | fold changes relative to vehicle control ([4]; HeLa, protein DDX20): 0.98 | fold changes relative to vehicle control ([5]; HeLa, captured protein NT5DC2): 0.96 | fold changes relative to vehicle control ([6]; HeLa, protein RAB1B): 0.98 | fold changes relative to vehicle control ([7]; HeLa, protein MOCOS): 1.11

CCCCCCOc1ccc(Cc2cnc(N)nc2N)cc1 [compound 1]
fold changes relative to vehicle control [1, 8]: 1.33 fold | fold changes relative to vehicle control ([2]; protein KIAA1787, HeLa): 1.03 | fold changes relative to vehicle control ([3]; captured protein DNAJA3, HeLa): 0.84 | fold changes relative to vehicle control ([4]; captured protein DDX20, HeLa): 0.89 | fold changes relative to vehicle control ([5]; protein NT5DC2, HeLa): 1.05 | fold changes relative to vehicle control ([6]; protein RAB1B, HeLa): 1.14 | fold changes relative to vehicle control ([7]; HeLa, protein MOCOS): 1.03

NCCCNc1ccc(C(=O)NC(CCC(=O)O)C(=O)O)cc1 (stereo not shown) [compound 7]
fold changes relative to vehicle control ([1]; HeLa, protein EEF2): 1.04 | fold changes relative to vehicle control ([2]; HeLa, protein KIAA1787): 1.21 | fold changes relative to vehicle control ([3]; protein DNAJA3, HeLa): 1.06 | fold changes relative to vehicle control ([4]; HeLa, protein DDX20): 0.94 | fold changes relative to vehicle control ([5]; HeLa, captured protein NT5DC2): 0.97 | fold changes relative to vehicle control ([6]; HeLa, protein RAB1B): 0.91 | fold changes relative to vehicle control ([7]; HeLa, protein MOCOS): 1.06
